Several values for one entry are separate records, joined by “and”; a condition that tells them apart may be missing. Identical values can stand only once. Inconclusive results and toxic doses are left out. No stated cut-off is given here; in the data, active means T/C of 150% or more; inactive means T/C below 125%.
Test system: L1210 leukemia ip in BDF1 mice, survival T/C
Experiment: NCI In Vivo Anticancer Drug Screen. Data for tumor model L1210 Leukemia (intraperitoneal) in B6D2F1 (BDF1) mice
Settings: endpoint: mean survival time, higher = longer survival
Summary of the method: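 In this screen, tumor-bearing mice given compound are compared to those given vehicle, and their survival values are reported as a treated-to-control quotient.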

[1] = dose: 100.0 mg/kg/injection, schedule: Q04DX003 (ip), vehicle: Klucel (hydroxypropylcellulose) (HPC)
[2] = dose: 200.0 mg/kg/injection, schedule: Q04DX003 (ip), vehicle: Klucel (hydroxypropylcellulose) (HPC)
[3] = dose: 400.0 mg/kg/injection, schedule: Q04DX003 (ip), vehicle: Klucel (hydroxypropylcellulose) (HPC)
[4] = dose: 100.0 mg/kg/injection, schedule: Q01DX001 (ip), vehicle: Klucel (hydroxypropylcellulose) (HPC)
[5] = dose: 200.0 mg/kg/injection, schedule: Q01DX001 (ip), vehicle: Klucel (hydroxypropylcellulose) (HPC)
[6] = dose: 400.0 mg/kg/injection, schedule: Q01DX001 (ip), vehicle: Klucel (hydroxypropylcellulose) (HPC)
[7] = dose: 100.0 mg/kg/injection, schedule: Q01DX009 (ip), vehicle: Klucel (hydroxypropylcellulose) (HPC)
[8] = dose: 200.0 mg/kg/injection, schedule: Q01DX009 (ip), vehicle: Klucel (hydroxypropylcellulose) (HPC)
[9] = dose: 400.0 mg/kg/injection, schedule: Q01DX009 (ip), vehicle: Klucel (hydroxypropylcellulose) (HPC)
[10] = dose: 100.0 mg/kg/injection, schedule: Q04DX002 (ip), vehicle: Klucel (hydroxypropylcellulose) (HPC)
[11] = dose: 200.0 mg/kg/injection, schedule: Q04DX002 (ip), vehicle: Klucel (hydroxypropylcellulose) (HPC)
[12] = dose: 400.0 mg/kg/injection, schedule: Q04DX002 (ip), vehicle: Klucel (hydroxypropylcellulose) (HPC)

Measured: T/C

CC(=O)OCC1OC(N2C(=O)/C(=C/c3ccc4ccccc4c3)SC2=S)C(OC(C)=O)C(OC(C)=O)C1OC(C)=O (stereo not drawn)
inactive: dose: 25.0 mg/kg/injection, schedule: Q01DX005 (ip), vehicle: other 92 % of control | dose: 50.0 mg/kg/injection, schedule: Q01DX005 (ip), vehicle: other 97 % of control

CC(C)c1oc(=O)cc2c1[C@@H](O)[C@H]1OC(=O)[C@@]3(C)[C@@H](O)[C@H]4O[C@H]4[C@@]2(C)[C@@H]13
inactive: dose: 5.0 mg/kg/injection, schedule: Q01DX001 (ip), vehicle: steriod suspending solution 105 % of control | dose: 10.0 mg/kg/injection, schedule: Q01DX001 (ip), vehicle: steriod suspending solution 98 % of control | dose: 20.0 mg/kg/injection, schedule: Q01DX001 (ip), vehicle: steriod suspending solution 110 % of control | dose: 40.0 mg/kg/injection, schedule: Q01DX001 (ip), vehicle: steriod suspending solution 104 % of control

CCOc1ccc2cc(S(=O)(=O)O)ccc2c1N
inactive: dose: 100.0 mg/kg/injection, schedule: Q01DX009 (ip), vehicle: saline 93 % of control | [1] 97 % of control | dose: 200.0 mg/kg/injection, schedule: Q01DX009 (ip), vehicle: saline 95 % of control | [2] 98 % of control | dose: 400.0 mg/kg/injection, schedule: Q01DX009 (ip), vehicle: saline 87 % of control | [3] 101 % of control

COc1ccc(N=NS(=O)O)cc1
inactive: [4] 98 % of control | [5] 97 % of control | [6] 95 % of control

CN(C)C1=CC(=O)C(N(C)C)=CC1=O
inactive: [4] 110 % of control | [5] 112 % of control | [6] 105 % of control

CC1(C)COCOC1
inactive: dose: 50.0 mg/kg/injection, schedule: Q01DX009 (ip), vehicle: acetone 95 % of control | dose: 100.0 mg/kg/injection, schedule: Q01DX009 (ip), vehicle: acetone 98 % of control | dose: 200.0 mg/kg/injection, schedule: Q01DX009 (ip), vehicle: acetone 88 % of control

COC(=O)c1cccc([N+](=O)[O-])c1Br
inactive: dose: 50.0 mg/kg/injection, schedule: Q01DX001 (ip), vehicle: other 102 % of control | dose: 100.0 mg/kg/injection, schedule: Q01DX001 (ip), vehicle: other 96 % of control | dose: 200.0 mg/kg/injection, schedule: Q01DX001 (ip), vehicle: other 102 % of control | dose: 400.0 mg/kg/injection, schedule: Q01DX001 (ip), vehicle: other 100 % of control

CC(C)OC(=O)C(C)OC(=O)C1CCCCC1 (stereo not drawn)
inactive: dose: 100.0 mg/kg/injection, schedule: Q01DX001 (ip), vehicle: saline 98 % of control | dose: 200.0 mg/kg/injection, schedule: Q01DX001 (ip), vehicle: saline 97 % of control | dose: 400.0 mg/kg/injection, schedule: Q01DX001 (ip), vehicle: saline 93 % of control

O=C(NCCBr)Nc1ccccc1
inactive: dose: 12.5 mg/kg/injection, schedule: Q01DX009 (ip), vehicle: Klucel (hydroxypropylcellulose) (HPC) 97 % of control | dose: 25.0 mg/kg/injection, schedule: Q01DX009 (ip), vehicle: Klucel (hydroxypropylcellulose) (HPC) 108 % of control | dose: 50.0 mg/kg/injection, schedule: Q01DX009 (ip), vehicle: Klucel (hydroxypropylcellulose) (HPC) 108 % of control | dose: 80.0 mg/kg/injection, schedule: Q01DX009 (ip), vehicle: Klucel (hydroxypropylcellulose) (HPC) 103 % of control | dose: 115.0 mg/kg/injection, schedule: Q01DX009 (ip), vehicle: Klucel (hydroxypropylcellulose) (HPC) 114 % of control | dose: 170.0 mg/kg/injection, schedule: Q01DX009 (ip), vehicle: Klucel (hydroxypropylcellulose) (HPC) 95 % of control

Cc1cc(C)c(S(=O)(=O)O)cc1[N+](=O)[O-]
inactive: [7] 96 % of control | [8] 101 % of control | [9] 98 % of control

CN(CCO)N=Nc1ccccc1
inactive: dose: 6.0 mg/kg/injection, schedule: Q01DX009 (ip), vehicle: other 105 % of control | dose: 12.0 mg/kg/injection, schedule: Q01DX009 (ip), vehicle: other 96 % of control | dose: 12.5 mg/kg/injection, schedule: Q01DX009 (ip), vehicle: other 112 % of control | dose: 18.0 mg/kg/injection, schedule: Q01DX009 (ip), vehicle: other 88 % of control | dose: 25.0 mg/kg/injection, schedule: Q01DX009 (ip), vehicle: other 109 % of control

C/C=C/Sc1ccccc1
inactive: dose: 75.0 mg/kg/injection, schedule: Q01DX001 (ip), vehicle: carboxymethylcellulose (CMC) 95 % of control | dose: 150.0 mg/kg/injection, schedule: Q01DX001 (ip), vehicle: carboxymethylcellulose (CMC) 101 % of control | dose: 300.0 mg/kg/injection, schedule: Q01DX001 (ip), vehicle: carboxymethylcellulose (CMC) 98 % of control

Cc1cc([N+](=O)[O-])ccc1NC(=O)Nc1cccc(F)c1
inactive: [7] 96 % of control | [10] 90 % of control | [1] 95 % of control | [8] 94 % of control | [11] 88 % of control | [2] 95 % of control | [9] 88 % of control | [12] 88 % of control | [3] 95 % of control

COc1ccc(CCOC(C)=O)cc1OC
inactive: [10] 102 % of control | [11] 97 % of control | [12] 97 % of control

O=S(=O)(CCCl)c1ccc(Br)cc1
inactive: [10] 101 % of control | [11] 97 % of control | [12] 101 % of control

CCCCCCCCCC(=O)OCC(COC(=O)CCCCCCCCC)OC(=O)CCCCCCCCC
inactive: dose: 100.0 mg/kg/injection, schedule: Q01DX009 (sc), vehicle: olive oil, sesame oil, peanut oil 103 % of control | dose: 100.0 mg/kg/injection, schedule: Q04DX003 (sc), vehicle: olive oil, sesame oil, peanut oil 101 % of control | dose: 200.0 mg/kg/injection, schedule: Q01DX009 (sc), vehicle: olive oil, sesame oil, peanut oil 101 % of control | dose: 200.0 mg/kg/injection, schedule: Q04DX003 (sc), vehicle: olive oil, sesame oil, peanut oil 97 % of control | dose: 400.0 mg/kg/injection, schedule: Q01DX009 (sc), vehicle: olive oil, sesame oil, peanut oil 104 % of control | dose: 400.0 mg/kg/injection, schedule: Q04DX003 (sc), vehicle: olive oil, sesame oil, peanut oil 104 % of control

CSc1ccc(NC(=O)OCC2CC3C=CC2C3)cc1 (stereo not drawn)
inactive: dose: 100.0 mg/kg/injection, schedule: Q01DX009 (ip), vehicle: saline with Tween-80 96 % of control and 92 % of control | dose: 100.0 mg/kg/injection, schedule: Q04DX002 (ip), vehicle: saline with Tween-80 89 % of control | dose: 100.0 mg/kg/injection, schedule: Q04DX003 (ip), vehicle: saline with Tween-80 95 % of control | dose: 200.0 mg/kg/injection, schedule: Q01DX009 (ip), vehicle: saline with Tween-80 94 % of control and 110 % of control | dose: 200.0 mg/kg/injection, schedule: Q04DX002 (ip), vehicle: saline with Tween-80 89 % of control | dose: 200.0 mg/kg/injection, schedule: Q04DX003 (ip), vehicle: saline with Tween-80 93 % of control | dose: 400.0 mg/kg/injection, schedule: Q01DX009 (ip), vehicle: saline with Tween-80 94 % of control and 100 % of control | dose: 400.0 mg/kg/injection, schedule: Q04DX002 (ip), vehicle: saline with Tween-80 111 % of control | dose: 400.0 mg/kg/injection, schedule: Q04DX003 (ip), vehicle: saline with Tween-80 98 % of control

CN(C(=O)C(=O)N(C)S(=O)(=O)c1ccccc1)S(=O)(=O)c1ccccc1
inactive: [4] 101 % of control | [5] 97 % of control | [6] 90 % of control
